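Interpolation was linear, between the two tested concentrations surrounding the appropriate level; five concentrations were tested over 48 hours in 96-well plates. GI50 is the concentration that inhibits growth by half. At the TGI there is no net growth.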
Experiments:
Assay in all cases: inhibition of tumour cell growth, NCI panel, 48 h
SR leukemia = system: SR leukemia
A549 NSCLC = system: A549 NSCLC
UO-31 renal = system: UO-31 renal
DU-145 prostate = system: DU-145 prostate
SK-MEL-5 melanoma = system: SK-MEL-5 melanoma
NCI/ADR-RES ovarian = system: NCI/ADR-RES ovarian
PC-3 prostate = system: PC-3 prostate
SK-MEL-28 melanoma = system: SK-MEL-28 melanoma
NCI-H226 lung = system: NCI-H226 lung
SF-295 CNS = system: SF-295 CNS

SMILES | GI50 (SR leukemia) [µM] | TGI (SR leukemia) [µM] | GI50 (A549 NSCLC) [µM] | TGI (A549 NSCLC) [µM] | GI50 (UO-31 renal) [µM] | TGI (UO-31 renal) [µM] | GI50 (DU-145 prostate) [µM] | TGI (DU-145 prostate) [µM] | GI50 (SK-MEL-5 melanoma) [µM] | TGI (SK-MEL-5 melanoma) [µM] | GI50 (NCI/ADR-RES ovarian) [µM] | TGI (NCI/ADR-RES ovarian) [µM] | GI50 (PC-3 prostate) [µM] | TGI (PC-3 prostate) [µM] | GI50 (SK-MEL-28 melanoma) [µM] | TGI (SK-MEL-28 melanoma) [µM] | GI50 (NCI-H226 lung) [µM] | TGI (NCI-H226 lung) [µM] | TGI (SF-295 CNS) [µM] | GI50 (SF-295 CNS) [µM]
O=C(CNc1ncco1)Nc1ccc(S(=O)(=O)c2ccc(NC(=O)CNc3ncco3)cc2)cc1 | 2.36 | 5.35 | 2.2 | 6.42 | 3.03 | 17.3 | 4.79 | 16.4 | 1.52 | 2.88 | 3.02 | 19.6 | 2.49 | 8.32 | 2.38 | 5.51 | 2.32 | 7.09 | – | –
[C-]#[N+][C@]12C(=O)[C@H](CCC1(C)C)C(C)(C)[C@H]1C(=O)N(C)c3cccc2c31 | 6.52 | > 100 | 5.42 | > 100 | – | – | 61.6 | > 100 | 9.08 | > 100 | > 100 | > 100 | 3.27 | > 100 | > 100 | > 100 | > 100 | > 100 | – | –
Cc1ccc(NC(=O)C2C(=O)N(c3ccc(C)c(C)c3)C(=O)/C2=N\NC(N)=S)cc1C (stereo unspecified) | – | > 100 | – | > 100 | – | > 100 | – | – | – | – | – | – | – | – | – | > 100 | – | > 100 | > 100 | –
Cc1cccc(C)c1NC(=O)CCC(=O)NC(N)=S | – | > 100 | – | > 100 | – | > 100 | – | – | – | > 100 | – | – | – | – | – | – | – | > 100 | > 100 | –
COc1cc2c([C@@H](OC(=O)c3ccccc3)c3ccc4c(c3)OCO4)nccc2c(OC)c1OC | – | > 100 | – | > 100 | – | 24.9 | – | – | – | 69.8 | – | – | – | – | – | – | – | 94.5 | > 100 | –
Cc1nc2cc(Nc3nc(Nc4ccc(F)cc4)nc(N4CCN(C)CC4)n3)ccc2n1Cc1ccccc1 | 0.266 | 0.806 | 1.51 | 3.15 | 1.79 | 3.82 | 1.75 | 3.37 | 1.54 | 2.89 | 2.71 | 7.6 | 2.04 | 5.4 | 1.73 | 3.16 | – | – | 3.6 | 1.82
CNC(=O)OC1C(O[C@H]2C[C@H]3[C@@H]4CC=C5C[C@@H](O)CC[C@]5(C)[C@H]4CC[C@]3(C)[C@H]2[C@H](C)C(=O)CCC(C)C)OCC(O)C1OC1OCC(O)C(O)C1OC(=O)c1ccc(OC)cc1 (stereo partly specified) | 0.0112 | 3.22 | 0.0178 | 4.96 | 0.0766 | 0.241 | 0.0246 | 6.12 | 0.026 | 0.317 | 7.1 | 27.5 | 0.01 | 0.447 | 0.0123 | 0.0754 | – | – | 0.00628 | < 0.00275
Cc1ccc(C2C3=C(N=c4s/c(=C/c5ccc(Br)cc5)c(=O)n42)c2ccc4ccccc4c2OCC3)cc1 (stereo unspecified) | > 100 | > 100 | > 100 | > 100 | > 100 | > 100 | > 100 | > 100 | > 100 | > 100 | > 100 | > 100 | > 100 | > 100 | > 100 | > 100 | – | – | > 100 | > 100
CCCCCC(O)(CCCCC)CCCCCCCCC1=C(O)c2[nH]c(=O)ccc2C(=O)C1=O | – | 96.7 | – | 26.3 | – | 26.1 | – | – | – | 12.9 | – | – | – | – | – | 20.7 | – | 28.8 | 16.4 | –
CCCCCCCCCCCC(O)=C1C(=O)CC(O)CC1=O (stereo unspecified) | – | > 100 | – | > 100 | – | > 100 | – | – | – | > 100 | – | – | – | – | – | > 100 | – | > 100 | > 100 | –
Cc1ccc2c(c1)O/C(=C\c1ccc([N+](=O)[O-])o1)C2=O | 0.168 | 0.799 | 2.74 | 8.53 | 1.18 | 3.46 | 2.25 | 6.4 | 1.61 | 3.04 | 2.85 | 23.1 | 1.75 | 5.15 | 2.15 | 4.89 | – | – | 7.06 | 2.42
CC(=O)/C=C/C1=C(c2cccs2)c2ccccc2CC1 | 23.6 | 51.8 | 37.3 | > 100 | 25.7 | 86.4 | 42.8 | > 100 | – | – | 27.3 | 81.7 | 40.7 | > 100 | 22.4 | 52.2 | 28.7 | 93.5 | 54.5 | 22.5
CCCCCCC#CC#Cc1cccc(=O)o1 | – | – | 9.24 | 30.7 | 3.26 | > 27.4 | 3.31 | 8.26 | 0.304 | 0.994 | 2.59 | 15.7 | 2.67 | 8.36 | 3.22 | 10.7 | 2.07 | 4.7 | 22.4 | 6.75
Oc1c(I)cc(-c2nc3ccccc3s2)cc1CN(Cc1ccccn1)Cc1ccccn1 | – | – | 0.427 | > 100 | 0.272 | 2.35 | 0.616 | > 100 | 0.179 | 0.438 | 0.411 | 2.93 | 0.308 | > 100 | 0.411 | 43 | 0.269 | 3.16 | > 100 | 0.35
c1cc(-c2cn[nH]c2)cc(-c2cn[nH]c2)c1 | – | > 100 | – | 69.5 | – | 58.4 | – | – | – | > 100 | – | – | – | – | – | > 100 | – | – | > 100 | –
Nc1ccc2ccc(NS(=O)(=O)N3CCCCC3)cc2c1 | 0.215 | > 100 | 1 | > 46 | 1.7 | > 100 | 1.45 | 22.2 | 0.285 | 4.52 | – | – | 1.28 | > 100 | 0.664 | > 100 | 2.56 | > 100 | 2.88 | 0.228
